Results published in EP4682145A1, “BENZOHETEROCYCLIC COMPOUND, AND PREPARATION METHOD THEREFOR AND USE THEREOF” (Cascade Pharmaceuticals, Inc., priority 2023, dated 2024).

Target: T1, human FFAR1 (GPR40) (Homo sapiens, UniProt O14842)
T1 construct: Flag; expressed in transfected cells; host or cells: HEK293T
Test: NFAT-RE-based reporter gene activity assay (Dual-Glo luciferase) for GPR40 agonistic activity in co-transfected HEK293T cells
Format: cell-based
Conditions: 4-hour treatment; for Efficacy (%): class symbols
Text: The pcDNA3.0-flag-FFAR1 (GPR40) plasmid was constructed using conventional molecular cloning methods. The main steps were as follows: The full-length cDNA sequence of human FFAR1 (GPR40) (NM_005303.3) was inserted into the HindIII and XbaI restriction sites of the pcDNA3.0 vector via PCR technology, resulting in the pcDNA3.0-flag-FFAR1 (GPR40) plasmid; pGL4.30 [luc2P NFAT-RE] (# E8481) and pRL-TK (#E2241) plasmids were both purchased from Promega; the plasmids were transformed into DH5α E. coli using the CaCl2 method, further cultured and amplified, and then purified using a plasmid extraction kit (TIANGEN, # DP117) to obtain the corresponding plasmid DNA.
HEK293T cells were seeded in a 96-well plate at a density of 1 × 10^4/well one day prior to plasmid transfection. Cell transfection was performed according to the instructions of the transfection reagent FuGENE® HD (Promega, # E2311). The main steps were as follows: Taking one well as an example, plasmids pcDNA3.0-flag-FFAR1 (GPR40), pGL4.30 [luc2P NFAT-RE], and pRL-TK were added at ratios of 50 ng, 50 ng, and 5 ng, respectively, into 10 µL of Opti-MEM™ I medium (Gibco, #11058021) and mixed thoroughly; then, 0.2 µL of FuGENE® HD was added, mixed thoroughly, and allowed to stand at room temperature for 5 minutes; finally, this 10 µL mixture was added to the cell well containing 100 µL of culture medium. 24 hours after co-transfection, the compounds were serially diluted at half-logarithmic intervals with 1 µM as the highest concentration, resulting in 10 concentration gradients, which were added to the cell culture medium for a 4-hour treatment.
After 4 hours of compound treatment, the cells were assayed according to the instructions of the Dual-Glo® Luciferase Assay System (Promega, # E2940). The main steps were as follows: 50 µL of culture medium was aspirated from each well and discarded, followed by the addition of 50 µL of Dual-Glo® Luciferase Reagent, and the mixture was shaken at room temperature for 10 minutes. Then, 80 µL of the lysate reaction solution was transferred to a white opaque optiPlate-96 well plate, and the luminescence signal of Firefly luciferase (Firefly-Luc) was measured using an MD i3x multifunctional microplate reader. Subsequently, 40 µL of Dual-Glo® Stop & Glo® Reagent was added, and the mixture was shaken at room temperature for 10 minutes. Finally, the luminescence signal of Renilla luciferase (Renilla-Luc) was measured using the MD i3x multifunctional microplate reader. The ratio of Firefly-Luc/Renilla-Luc was used as the compound's agonistic activity toward GPR40, and normalization was performed using the ratio of the solvent DMSO group. A dose-response curve was fitted using a four-parameter model with GraphPad Prism 8.0 software to calculate the EC50 value.

T1 sequence (O14842 whole entry): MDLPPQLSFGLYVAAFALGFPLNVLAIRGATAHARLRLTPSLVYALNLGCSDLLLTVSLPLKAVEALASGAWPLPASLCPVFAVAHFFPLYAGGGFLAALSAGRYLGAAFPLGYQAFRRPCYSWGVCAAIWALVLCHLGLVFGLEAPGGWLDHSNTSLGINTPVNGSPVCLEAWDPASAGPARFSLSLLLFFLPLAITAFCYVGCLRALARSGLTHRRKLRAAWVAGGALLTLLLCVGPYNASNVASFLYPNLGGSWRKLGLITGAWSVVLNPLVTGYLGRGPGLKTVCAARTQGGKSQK

Compound | EC50 [nM] | Efficacy (%)
COc1ccc(Cl)c(N2CCC(c3oc4cc(C(CC(=O)O)C5CC5)ccc4c3-c3cnn(C(C)(C)C)c3)CC2)c1 (stereo not drawn) [Compound 90] | 100 to 500 | † (100 ≥ Efficacy (%) > 50)
CNC(=O)c1ccc(OC)cc1N1CCC(c2oc3cc(C(CC(=O)O)C4CC4)ccc3c2-c2cnn(C(C)(C)C)c2)CC1 (stereo not drawn) [Compound 91] | 100 to 500 | † (100 ≥ Efficacy (%) > 50)
COc1ccc(C(=O)N(C)CC(C)(C)C)c(N2CCC(c3oc4cc([C@@H](CC(=O)O)C5CC5)ccc4c3-c3cnn(C(C)(C)C)c3)CC2)c1 [Compound 92] | 100 to 500 | ††† (Efficacy (%) > 150)
COc1ccc(C(=O)N(C)c2ccccc2)c(N2CCC(c3oc4cc([C@@H](CC(=O)O)C5CC5)ccc4c3-c3cnn(C(C)(C)C)c3)CC2)c1 [Compound 93] | 100 to 500 | ††† (Efficacy (%) > 150)
COc1ccc(C(=O)Nc2cccc(C)n2)c(N2CCC(c3oc4cc(C(CC(=O)O)C5CC5)ccc4c3-c3cnn(C(C)(C)C)c3)CC2)c1 (stereo not drawn) [Compound 94] | 100 to 500 | † (100 ≥ Efficacy (%) > 50)
CCCCCCNC(=O)c1ccc(OC)cc1N1CCC(c2oc3cc(C(CC(=O)O)C4CC4)ccc3c2-c2cnn(C(C)(C)C)c2)CC1 (stereo not drawn) [Compound 95] | 100 to 500 | †† (150 ≥ Efficacy (%) > 100)
CC(C)(C)n1cc(-c2c(C3CCN(c4ccc5c(c4)OC(F)(F)O5)CC3)oc3cc([C@@H](CC(=O)O)C4CC4)ccc23)cn1 [Compound 96] | 100 to 500 | ††† (Efficacy (%) > 150)
CC(C)(C)n1cc(-c2c(C3CCN(c4ccc5c(c4)OCO5)CC3)oc3cc([C@@H](CC(=O)O)C4CC4)ccc23)cn1 [Compound 97] | 10 to 100 | †† (150 ≥ Efficacy (%) > 100)
COc1ccc(F)c(N2CCC(c3oc4cc(C(CC(=O)O)C5CC5)ccc4c3-c3cnn(-c4ccccc4)c3)CC2)c1 (stereo not drawn) [Compound 99] | 100 to 500 | †† (150 ≥ Efficacy (%) > 100)
COc1cccc(N2CCC(c3oc4cc(C(CC(=O)O)C5CC5)ccc4c3-c3cnc(C)s3)CC2)c1 (stereo not drawn) [Compound 101] | 100 to 500 | †† (150 ≥ Efficacy (%) > 100)
COc1cccc(N2CCC(c3oc4cc([C@@H](CC(=O)O)C5CC5)ccc4c3-c3cnc(C(C)C)s3)CC2)c1 [Compound 102] | 10 to 100 | †† (150 ≥ Efficacy (%) > 100)
COc1cccc(N2CCC(c3oc4cc([C@@H](CC(=O)O)C5CC5)ccc4c3-c3cnc(C(C)(C)C)s3)CC2)c1 [Compound 103] | 10 to 100 | †† (150 ≥ Efficacy (%) > 100)
COc1cccc(N2CCC(c3oc4cc(C(CC(=O)O)C5CC5)ccc4c3-c3cn(C(C)C)cn3)CC2)c1 (stereo not drawn) [Compound 104] | > 500 | †† (150 ≥ Efficacy (%) > 100)
COc1cccc(N2CCC(c3oc4cc([C@@H](CC(=O)O)C5CC5)ccc4c3-c3csc(OC)n3)CC2)c1 [Compound 105] | 10 to 100 | †† (150 ≥ Efficacy (%) > 100)
COc1cccc(N2CCC(c3oc4cc(C(CC(=O)O)C5CC5)ccc4c3-c3csc(C(C)C)n3)CC2)c1 (stereo not drawn) [Compound 106] | 10 to 100 | †† (150 ≥ Efficacy (%) > 100)
COc1cccc(N2CCC(c3oc4cc([C@@H](CC(=O)O)C5CC5)ccc4c3-c3csc(C(C)C)n3)CC2)c1 [Compound 107] | 100 to 500 | ††† (Efficacy (%) > 150)
COc1cccc(N2CCC(c3oc4cc([C@@H](CC(=O)O)C5CC5)ccc4c3-c3csc(C(C)(C)C)n3)CC2)c1 [Compound 108] | 10 to 100 | ††† (Efficacy (%) > 150)
COc1cccc(N2CCC(c3oc4cc([C@@H](CC(=O)O)C5CC5)ccc4c3-c3nc(C(C)C)cs3)CC2)c1 [Compound 109] | 100 to 500 | †† (150 ≥ Efficacy (%) > 100)
COc1cccc(N2CCC(c3oc4cc([C@@H](CC(=O)O)C5CC5)ccc4c3-c3nc(C(C)(C)C)cs3)CC2)c1 [Compound 110] | 10 to 100 | †† (150 ≥ Efficacy (%) > 100)
COc1cccc(N2CCC(c3oc4cc(C(CC(=O)O)C5CC5)ccc4c3-c3ncc(C(C)C)s3)CC2)c1 (stereo not drawn) [Compound 111] | 10 to 100 | ††† (Efficacy (%) > 150)

Compound | EC50 [nM] | Efficacy (%)
COc1cccc(N2CCC(c3oc4cc([C@@H](CC(=O)O)C5CC5)ccc4c3-c3ncc(C(C)C)s3)CC2)c1 [Compound 112] | 10 to 100 | †† (150 ≥ Efficacy (%) > 100)
COc1cccc(N2CCC(c3oc4cc([C@@H](CC(=O)O)C5CC5)ccc4c3-c3ncc(C(C)(C)C)s3)CC2)c1 [Compound 113] | ≤ 10 | †† (150 ≥ Efficacy (%) > 100)
COc1cccc(N2CCC(c3oc4cc(C(CC(=O)O)C5CC5)ccc4c3-c3cc(C(C)(C)C)on3)CC2)c1 (stereo not drawn) [Compound 114] | 10 to 100 | †† (150 ≥ Efficacy (%) > 100)
COc1cccc(N2CCC(c3oc4cc(C(CC(=O)O)C5CC5)ccc4c3-c3cc(C(C)(C)C)no3)CC2)c1 (stereo not drawn) [Compound 115] | ≤ 10 | †† (150 ≥ Efficacy (%) > 100)
COc1cccc(N2CCC(c3oc4cc([C@@H](CC(=O)O)C5CC5)ccc4c3-c3cc(C(C)(C)C)no3)CC2)c1 [Compound 116] | ≤ 10 | †† (150 ≥ Efficacy (%) > 100)
COc1cccc(N2CCC(c3oc4cc([C@@H](CC(=O)O)C5CC5)ccc4c3-c3nc(C(C)(C)C)co3)CC2)c1 [Compound 117] | 10 to 100 | †† (150 ≥ Efficacy (%) > 100)
COc1cccc(N2CCC(c3oc4cc(C(CC(=O)O)C5CC5)ccc4c3-c3nnc(C(C)(C)C)s3)CC2)c1 (stereo not drawn) [Compound 118] | 10 to 100 | †† (150 ≥ Efficacy (%) > 100)
COc1cccc(N2CCC(c3oc4cc(C(CC(=O)O)C5CC5)ccc4c3-c3cn(C)nn3)CC2)c1 (stereo not drawn) [Compound 120] | > 500 | †† (150 ≥ Efficacy (%) > 100)
COc1cccc(N2CCC(c3oc4cc(C(CC(=O)O)C5CC5)ccc4c3-c3ncn(C)n3)CC2)c1 (stereo not drawn) [Compound 121] | > 500 | †† (150 ≥ Efficacy (%) > 100)
COc1cccc(N2CCC(c3oc4cc(C(CC(=O)O)C5CC5)ccc4c3-c3noc(C(C)(C)C)n3)CC2)c1 (stereo not drawn) [Compound 122] | 10 to 100 | †† (150 ≥ Efficacy (%) > 100)
COc1cccc(N2CCC(c3oc4cc(C(CC(=O)O)C5CC5)ccc4c3-c3nnc(C(C)C)o3)CC2)c1 (stereo not drawn) [Compound 123] | 100 to 500 | †† (150 ≥ Efficacy (%) > 100)
COc1cccc(N2CCC(c3oc4cc(C(CC(=O)O)C5CC5)ccc4c3-c3nnc(C(C)(C)C)o3)CC2)c1 (stereo not drawn) [Compound 124] | 10 to 100 | †† (150 ≥ Efficacy (%) > 100)
COc1cccc(N2CCC(c3oc4cc([C@@H](CC(=O)O)C5CC5)ccc4c3-c3nnc(C(C)(C)C)o3)CC2)c1 [Compound 125] | 10 to 100 | †† (150 ≥ Efficacy (%) > 100)
COc1cccc(N2CCC(c3oc4cc(C(CC(=O)O)C5CC5)ccc4c3-c3nnc(C(C)(C)C(F)(F)F)o3)CC2)c1 (stereo not drawn) [Compound 126] | 10 to 100 | †† (150 ≥ Efficacy (%) > 100)
COc1cccc(N2CCC(c3oc4cc(C(CC(=O)O)C5CC5)ccc4c3-c3cnn(C(C)(C)C#N)c3)CC2)c1 (stereo not drawn) [Compound 127] | 100 to 500 | ††† (Efficacy (%) > 150)
CCC(C)(C)c1nnc(-c2c(C3CCN(c4cccc(OC)c4)CC3)oc3cc(C(CC(=O)O)C4CC4)ccc23)o1 (stereo not drawn) [Compound 128] | 10 to 100 | †† (150 ≥ Efficacy (%) > 100)
CCCC(C)(C)c1nnc(-c2c(C3CCN(c4cccc(OC)c4)CC3)oc3cc(C(CC(=O)O)C4CC4)ccc23)o1 (stereo not drawn) [Compound 129] | 10 to 100 | †† (150 ≥ Efficacy (%) > 100)
CCCCC(C)(C)c1nnc(-c2c(C3CCN(c4cccc(OC)c4)CC3)oc3cc(C(CC(=O)O)C4CC4)ccc23)o1 (stereo not drawn) [Compound 130] | 10 to 100 | †† (150 ≥ Efficacy (%) > 100)
CCCCCC(C)(C)c1nnc(-c2c(C3CCN(c4cccc(OC)c4)CC3)oc3cc(C(CC(=O)O)C4CC4)ccc23)o1 (stereo not drawn) [Compound 131] | 10 to 100 | †† (150 ≥ Efficacy (%) > 100)
